Results taken from patent publication US10617677B2, “Nuclear transport modulators and uses thereof” (Biogen MA Inc., priority 2012, dated 2020).
“Also recorded” adds a separate entry of the source.

What was measured:
[1] = tested on: Nrf2 pathway; assay: Nrf2 pathway induction in THP-1 cells with or without KEAP1 knockdown (quantitative PCR); format: cell-based, human
Description: THP-1 (human acute monocytic leukemia cells) cells were used to evaluate the effects of Compound 1 on the Nrf2 pathway in an inflammation environment. Nuclear factor (erythroid-derived 2)-like 2 (Nrf2) is an anti-inflammatory transcription factor. Under normal conditions, Nrf2 is kept in the cytoplasm by Kelch like-ECH associated protein 1 (KEAP1), which degrades Nrf2 by ubiquitination. Nrf2 can also move into the nucleus and back into the cytoplasm as a CRM1 cargo. In the current study, Nrf2 was protected from degradation by knocking down KEAP1 with siRNA. Then, KEAP1-depleted cells were treated with TNFα to induce inflammation, and the ability of Compound 1 to reverse inflammation by up-regulation of the Nrf2 pathway was tested.
THP-1 (acute monocytic leukemia) cells were plated in two 10 cm culture dishes (6*10^6 cells/dish) with RPMI-1640 medium (Lonza) supplemented with 10% heat-inactivated fetal bovine serum (Invitrogen) and 2-mercaptoethanol to a final concentration of 0.05 mM. Cells in one dish were transfected with 50 nM of KEAP1 siRNA (Life Technologies, Silencer Select, siRNA ID # s18982) using Lipofectamine RNAiMax (Invitrogen), whereas the cells in the other dish were transfected with 50 nM of control siRNA, Block-iT (Invitrogen). Transfected cells were left for 72 h and the KEAP1 knockdown efficiency was calculated with quantitative PCR using a probe against KEAP1.
Next, the cells from each of the dishes were divided equally into 4 wells in different 6-well plates. One of the wells from each of the plates was pre-treated with 1 μM of Compound 1 for 1 h, followed by 20 ng/mL TNFα for 24 h. The other wells were treated with either 1 μM Compound 1 or 20 ng/mL TNFα or neither for 24 h. Following the treatment, RNA was extracted from the cells using an RNA extraction kit (Qiagen). RNA samples from each treatment group were reverse transcribed and real-time PCR was performed on the corresponding cDNA sequences using probes against Nrf2 and two of its downstream genes, NQO1 and EPHX1. THP-1 cells were transfected with KEAP1 siRNA. 40% knockdown efficiency was achieved. The KEAP1 knockdown cells were treated with either 1 μM of Compound 1 or 20 ng/mL of TNFα or both together for 24 h.

[2] = tested on: obese Zucker rats; assay: Food intake and body weight in Zucker rats; format: in vivo
Description: Twenty-one (21) male Zucker rats aged 7 months were allocated into 3 groups of N=7 based on equivalent body weights and food intakes. An additional group of N=7 age matched Zucker lean controls were included as a control. Body weights and food and water intakes were measured at approximately the same time each day (14:30-15:30 h). On treatment days, dosing was at 14:30-15:30 h (approximately 2 hours before lights off).
The Zucker obese and lean controls were orally treated with vehicle (10 mL/kg dose volume; 0.5% Pluronic F68 and 0.5% PVP K29/32 in water) on each weekday. Both Compound 2 (1.5 mg/kg and 3 mg/kg) groups were orally treated on each weekday (10 mL/kg dose volume; 0.5% Pluronic F68 and 0.5% PVP K29/32 in water). Prior to the treatment phase, 4 days baseline data were collected. The treatment phase was for 16 days and a washout phase of 6 days was also included.

[3] = tested on: diet-induced obesity; assay: Diet-induced obesity (DIO) model in Sprague-Dawley rats; format: in vivo
Description: Male Sprague-Dawley rats of age 2 months were placed on a high fat diet (Research Diets Inc., product code D12492, 60% kcal % fat) for 3 months. A group of age-matched rats were fed normal lab chow (LabDiet 5001, ˜13% kcal % fat), these animals served as controls for DIO group.
At age 4 months, and 2 months into placement of high fat diet, all rats were allocated into 3 groups of N=7 based on equivalent body weights and food intakes. Body weights and food and water intakes were measured at approximately the same time each day. On treatment days, dosing was at approximately 2 hours before lights off.
The DIO control group was treated with vehicle (oral, 10 mL/kg dose volume; 0.5% Pluronic F68 and 0.5% PVP K29/32 in water) on each weekday. The Compound 2 1.5 mg/kg group was orally treated on each weekday throughout the treatment phase (dose 10 mL/kg dose volume; 0.5% Pluronic F68 and 0.5% PVP K29/32 in water). The Compound 2 3 mg/kg group (10 mL/kg dose volume; 0.5% Pluronic F68 and 0.5% PVP K29/32 in water) was orally treated initially once daily on each weekday for week 1, then twice weekly (Monday, Wednesday) for week 2. During treatment weeks 3 and 4, Compound 2 3 mg/kg treatment continued twice weekly, except dosing was on Monday and Thursday.
Prior to the treatment phase, 3 days baseline data were collected. The treatment phase was for 4 weeks. A washout phase of 10 days was also included.
Compound 2 was supplied in powder form. […] Active percentage was adjusted using BEW of 1.437 and prepared by dissolving into 0.5% w/v Pluronic F-68 and 0.5% w/v PVP K-29-32 vehicle solution. The vehicle solution was prepared on a weekly basis while Compound 2 was prepared fresh every 2 days and stored at +4° C. Animals were dosed at a volume of 10 mL/kg. Individual doses were calculated based on the most recent body weights to provide the proper mg/kg/day dosage.

[4] = 1 μM Compound 1 + 20 ng/mL TNFα, 24 h, KEAP1 knockdown
[5] = 1 μM Compound 1 + 20 ng/mL TNFα, 24 h, without KEAP1 knockdown
[6] = 1.5-3 mg/kg oral, 16 day treatment period
[7] = 1.5-3 mg/kg oral, 28 day treatment period

Compound | increase in NQO1 expression [1, 4] | increase in Nrf2 expression compared to untreated cells [1, 4] | increase in NQO1 expression [1, 5] | increase in Nrf2 mRNA levels [1, 5] | induction of EPHX1 expression [1, 5] | EPHX1 mRNA expression ([1]; 1 μM Compound 1, presence or absence of TNFα) | Nrf2 expression ([1]; 1 μM Compound 1 alone, with or without KEAP1 knockdown) | Nrf2 signaling ([1]; 1 μM for 24 hrs in the presence of 20 ng/mL TNFα) | body weight gain versus Zucker vehicle group ([2]; 1.5 mg/kg oral) | body weight gain versus Zucker vehicle group ([2]; 3 mg/kg oral) | body weight compared to Zucker control group [2, 6] | daily food intake compared to Zucker control group [2, 6] | water intake [2, 6] | body weight compared to DIO control group [3, 7] | daily food intake compared to DIO control group [3, 7] | water intake [3, 7] | body weight gain (percentage of body weight change from study day 3) compared to DIO controls ([3]; 1.5 and 3 mg/kg, treatment days 7 and 14) | body weight compared to DIO controls ([3]; washout phase)
CC(C)(C)C(=O)NNC(=O)/C=C\n1cnc(-c2cc(C(F)(F)F)cc(C(F)(F)F)c2)n1 [Compound 1, (Z)-3-(3-(3,5-bis(trifluoromethyl)phenyl)-1H-1,2,4-triazol-1-yl)-N′-pivaloylacrylohydrazide] | 4 fold | 2.5 fold | 2 fold | ≤ 3 fold | 1.5 fold | up-regulated the expression of EPHX1 | did not have any significant effect | up-regulated Nrf2 signaling |  |  |  |  |  |  |  |  |  | 
O=C(/C=C\n1cnc(-c2cc(C(F)(F)F)cc(C(F)(F)F)c2)n1)NNC(=O)CN1CCOCC1 [Compound 2, (Z)-3-(3-(3,5-bis(trifluoromethyl)phenyl)-1H-1,2,4-triazol-1-yl)-N′-(2-morpholinoacetyl)acrylohydrazide] |  |  |  |  |  |  |  |  | no significant difference in weight gain | significant difference in body weight gain; also recorded: lower weight gain | dose-related decrease | dose-related decrease; also recorded: dose dependent decrease | significantly increased water intake | dose-related decrease | dose-related decrease; also recorded: decreases daily food intake in a dose dependent manner | significantly increased water intake | significant reduction in weight gain; also recorded: affects body weight gain at both 1.5 and 3 mg/kg doses | remained lower than DIO controls
